Here are results for nine molecules from ChEMBL document CHEMBL1201862, “PubChem BioAssay data set” (2004).

Some test systems named below: NCI/ADR-RES; MDA-MB-435; ACHN; UACC-257; A549; EKVX; SW-620; LOX IMVI; OVCAR-3; SR; HCT-15; HCT-116; MCF7; SN12C; UACC-62; Malme-3M; SK-OV-3; MDA-MB-231; HT-29; HL-60.
What all share (assay): NCI tumour cell line growth inhibition, 48 h

The structures appear in SMILES notation.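 Assay format: 96-well plates, 48-hour exposure. Abbreviation: GI50, concentration required for 50% inhibition of growth.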 Activity calls are given as the source filed them. No stated cut-off is given here; in the data, active = GI50 up to about 1.1 µM and inactive = higher. Some results are limits rather than exact numbers.

Consider `COC(=O)c1c[nH]c(=O)[nH]c1=O` [ISOOROTIC ACID METHYL ESTER], for which the GI50 with NCI/ADR-RES, in the experiment with MDA-MB-435, with ACHN, in the experiment on UACC-257, in the experiment on A549 and in the experiment with EKVX was > 100 µM (inactive) throughout. Moreover, the GI50 in the experiment on SW-620 is > 100 µM (inactive); in the experiment on LOX IMVI, > 100 µM (inactive); in the experiment on OVCAR-3, > 100 µM (inactive); in the experiment on SR it was > 100 µM (inactive); in the experiment with HCT-15, more than 100 µM; in the experiment with HCT-116, > 100 µM (inactive). The GI50 in the experiment on MCF7, in the experiment with SN12C and in the experiment with UACC-62 was > 100 µM (inactive) in each case.
Turning to `[N-]=[N+]=CC(=O)OC1CCc2ccccc21` (stereo not given), the GI50 was > 100 µM (inactive) in the experiment on MDA-MB-435; 9.95 µM (inactive) in the experiment with ACHN; > 100 µM (inactive) with UACC-257; > 100 µM (inactive) in the experiment with Malme-3M; > 100 µM (inactive) with EKVX; > 100 µM (inactive) in the experiment on SW-620. Besides, the GI50 in the experiment with LOX IMVI was > 100 µM (inactive); with SK-OV-3, > 100 µM (inactive); in the experiment with OVCAR-3, > 100 µM (inactive); in the experiment on MDA-MB-231 it was 44.1 µM (inactive); in the experiment with SR, > 100 µM (inactive); with HCT-15, more than 100 µM. The GI50 was > 100 µM (inactive) with HT-29; > 100 µM (inactive) in the experiment with HCT-116; 42.3 µM (inactive) in the experiment with HL-60; 71.1 µM (inactive) in the experiment on MCF7; 42.5 µM (inactive) in the experiment with SN12C; > 100 µM (inactive) in the experiment on UACC-62.
`Cc1ccc(S(=O)(=O)Nn2c(-c3ccccc3)c(C#N)c(-c3ccc(Cl)cc3)c(C#N)c2=O)cc1`: the GI50 in the experiment on MDA-MB-435 was 33.3 µM (inactive); in the experiment with ACHN, 22 µM (inactive); with UACC-257, 32.8 µM (inactive); with A549, 26.9 µM (inactive); with SW-620 it was 30.4 µM (inactive); in the experiment with LOX IMVI, 21.4 µM (inactive). Further, the GI50 in the experiment on SK-OV-3 is 35.4 µM (inactive); in the experiment on MDA-MB-231, 20 µM (inactive); in the experiment with HCT-15 it was 26.9 µM; with HCT-116, 18.9 µM (inactive); in the experiment on HL-60 it was 14.6 µM (inactive); with MCF7, 19.4 µM (inactive). In addition, the GI50 in the experiment with SN12C is 35.7 µM (inactive); in the experiment on UACC-62 it was 16.1 µM (inactive).
Regarding `CC(C)=CCC/C(C)=C/CCC1(C)C2COC(=O)C21` (stereo not given), the GI50 with MDA-MB-435 is 65.5 µM (inactive); with ACHN, > 100 µM (inactive); in the experiment with UACC-257 it was > 100 µM (inactive); in the experiment with Malme-3M, > 100 µM (inactive); in the experiment with EKVX it was 53.2 µM (inactive); in the experiment with SW-620, 19.3 µM (inactive). Besides, the GI50 in the experiment with LOX IMVI is 26.7 µM (inactive); in the experiment with SK-OV-3, > 100 µM (inactive); in the experiment on OVCAR-3, 37 µM (inactive); in the experiment on MDA-MB-231, > 100 µM (inactive); with SR, 37 µM (inactive); with HCT-15, 57.4 µM. The GI50 in the experiment with HT-29 is 70.8 µM (inactive); in the experiment on HCT-116, 31.9 µM (inactive); with HL-60, 19.8 µM (inactive); in the experiment on MCF7 it was 34.8 µM (inactive); in the experiment on SN12C, 77.3 µM (inactive); with UACC-62, > 100 µM (inactive).
As to `O=C(/C=C/c1ccccc1Cl)c1ccc(Cl)c(Cl)c1`, the GI50 was 15.3 µM (inactive) in the experiment with ACHN; 19.7 µM (inactive) with UACC-257; 19.5 µM (inactive) in the experiment on A549; 22.8 µM (inactive) with Malme-3M; 14.5 µM (inactive) in the experiment with EKVX; 15.1 µM (inactive) with SW-620. For the same molecule, the GI50 in the experiment on LOX IMVI was 14.6 µM (inactive); in the experiment on SK-OV-3, 24.5 µM (inactive); with OVCAR-3, 15.4 µM (inactive); in the experiment with SR, 21.7 µM (inactive); with HCT-15 it was 15.7 µM; with HT-29 it was 19.8 µM (inactive). Besides, the GI50 is 11.5 µM (inactive) in the experiment with HCT-116, 25.8 µM (inactive) with HL-60, > 100 µM (inactive) in the experiment with SN12C and 19.1 µM (inactive) in the experiment on UACC-62.
With `CC1(C)CC(=O)C(C(=O)Nc2cccs2)=C(O)C1`, the GI50 with ACHN was 32.7 µM (inactive); with UACC-257, 47.9 µM (inactive); in the experiment on A549, 32.1 µM (inactive); in the experiment on Malme-3M, 32.1 µM (inactive); with EKVX it was 42 µM (inactive); in the experiment with SW-620, 38.8 µM (inactive). Moreover, the GI50 with LOX IMVI was 32.3 µM (inactive); in the experiment with SK-OV-3, 62.4 µM (inactive); in the experiment with OVCAR-3, 29.4 µM (inactive); in the experiment with SR it was 29.9 µM (inactive); with HCT-15, 33.9 µM; in the experiment with HT-29, 49.1 µM (inactive). In addition, the GI50 in the experiment with HCT-116 was 29.7 µM (inactive); in the experiment on HL-60 it was 24.1 µM (inactive); in the experiment on SN12C, 39.4 µM (inactive); in the experiment with UACC-62 it was 29.2 µM (inactive).
In the case of `Cc1cccc2[s+]snc12`, the GI50 in the experiment on ACHN is 63.5 µM (inactive); with UACC-257, > 76.9 µM (inactive); in the experiment on A549, > 100 µM (inactive); in the experiment on Malme-3M it was 30.5 µM (inactive); with EKVX it was > 51.3 µM (inactive); in the experiment on SW-620 it was 24.2 µM (inactive). Moreover, the GI50 in the experiment with LOX IMVI was 49.5 µM (inactive); with SK-OV-3, > 100 µM (inactive); in the experiment with OVCAR-3 it was 30.1 µM (inactive); in the experiment on SR, 31.3 µM (inactive); in the experiment on HCT-15, more than 47.4 µM; in the experiment on HT-29 it was > 100 µM (inactive). Besides, the GI50 in the experiment with HCT-116 was > 59.4 µM (inactive); in the experiment on HL-60, 18 µM (inactive); in the experiment on SN12C, > 69.2 µM (inactive); with UACC-62, > 100 µM (inactive).
Consider `CC(=O)C1C(=O)C(=O)N(c2cccc(C)c2C)C1=O` (stereo not given), for which the GI50 in the experiment on NCI/ADR-RES, with ACHN, in the experiment on UACC-257, in the experiment on A549, in the experiment on EKVX and in the experiment on LOX IMVI was > 100 µM (inactive) throughout. The GI50 with SK-OV-3, in the experiment with OVCAR-3, in the experiment on MDA-MB-231, in the experiment on HT-29, in the experiment with HCT-116 and with HL-60 was > 100 µM (inactive) each time. Also, the GI50 in the experiment on MCF7, in the experiment on SN12C and with UACC-62 was > 100 µM (inactive) each time.
For the molecule `COc1cc(COC(=O)N(C)[C@@H](Cc2ccccc2)C(=O)O)c([N+](=O)[O-])cc1OC`, the GI50 with NCI/ADR-RES, in the experiment with MDA-MB-435, with ACHN, in the experiment with UACC-257, with A549 and in the experiment with Malme-3M was > 100 µM (inactive) each time. The GI50 in the experiment with EKVX is > 100 µM (inactive); in the experiment with SW-620, > 100 µM (inactive); in the experiment on SK-OV-3 it was > 100 µM (inactive); with OVCAR-3, > 100 µM (inactive); in the experiment on HCT-15, more than 100 µM; in the experiment with HT-29, > 100 µM (inactive). The GI50 in the experiment on HCT-116, in the experiment with HL-60, in the experiment on MCF7, with SN12C and with UACC-62 was > 100 µM (inactive) in each case.
